Source: publication PMC8457330 (Journal of medicinal chemistry, 2021)

Assays:
SARS-CoV = details: read-out: SARS-CoV antiviral EC50; VeroE6 cells; cited from earlier work
SARS-CoV 3CLpro = SARS-CoV 3CLpro (Severe acute respiratory syndrome coronavirus, UniProt P0C6X7); experiment: biochemical
SARS-CoV-2 = experiment: Antiviral activity, quantitative VeroE6 cell-based assay with RNA-qPCR; details: VeroE6 cells, EC50 ratio versus compound 1
SARS-CoV-2 3CLpro = SARS-CoV-2 3CLpro (Severe acute respiratory syndrome coronavirus 2, UniProt P0DTD1); format: biochemical

For `O=C(Oc1cncc(Cl)c1)c1cccc2[nH]ccc12` [Compound 1, 5-chloropyridin-3-yl 1H-indole-4-carboxylate], which EC50 (SARS-CoV) is on record?
The EC50 was 6900 nM.

Which results are given for `O=C(Oc1cncc(Cl)c1)c1cccc2c1CCN2` [Compound 2, 5-chloropyridin-3-yl indoline-4-carboxylate]?
IC50 (SARS-CoV 3CLpro): 190 nM; fold reduction in antiviral activity compared to 1 (SARS-CoV-2): 5 fold

Which IC50 (SARS-CoV 3CLpro) does the source give for `O=C(Oc1cncc(Cl)c1)c1ccc2[nH]ccc2c1` [Compound 7a, 5-chloropyridin-3-yl 1H-indole-5-carboxylate] here?
The IC50 was 405 nM.

Which “fold reduction in antiviral activity compared to 1” value (SARS-CoV-2) does the source give for `C=CCn1ccc2c(C(=O)Oc3cncc(Cl)c3)cccc21` [Compound 7d, 5-chloropyridin-3-yl 1-allyl-1H-indole-4-carboxylate] here?
Its value is ~5 fold.

What about the “fold improvement in inhibitory potency over 1” value (SARS-CoV-2 3CLpro; versus compound 1) of the same compound?
The value was “over 5 fold”.

With `C=CCc1cn(CC=C)c2cccc(C(=O)Oc3cncc(Cl)c3)c12` [Compound 7e, 5-chloropyridin-3-yl 1,3-diallyl-1H-indole-4-carboxylate] as the compound, how does the “fold reduction in enzyme inhibitory activity” value (SARS-CoV-2 3CLpro; bis-allyl 7e versus 7d) read?
Its value is 5 fold.
